The values below are quoted from earlier work in patent EP0214616A2, “Acetylenic prostaglandins” (G.D. Searle & Co., priority 1985, dated 1987).

The data set concerns gastric secretion. To be noted: at the highest dose tested (100ug/kg).

Turning to `CCCCC(C)(O)C/C=C/[C@H]1[C@H](O)CC(=O)[C@@H]1CCC#CCCC(=O)OC` (mixture of isomers) [Example C90001], the gastric antisecretory activity entry is “devoid of gastric antisecretory activity”.
